Legend:
hTAAR1 = biological target: T1, hTAAR1 (Homo sapiens, UniProt Q96RJ0); test: hTAAR1 functional assay (cAMP); type: cell-based; settings: for EC50: read-out: hTAAR1 EC50 (mean ± SEM (n)); for Emax: read-out: hTAAR1 Emax (mean ± SEM (n))
T1 construct: expressed in transfected cells; host or cells: recombinant cells
T1 sequence (Q96RJ0 1-339): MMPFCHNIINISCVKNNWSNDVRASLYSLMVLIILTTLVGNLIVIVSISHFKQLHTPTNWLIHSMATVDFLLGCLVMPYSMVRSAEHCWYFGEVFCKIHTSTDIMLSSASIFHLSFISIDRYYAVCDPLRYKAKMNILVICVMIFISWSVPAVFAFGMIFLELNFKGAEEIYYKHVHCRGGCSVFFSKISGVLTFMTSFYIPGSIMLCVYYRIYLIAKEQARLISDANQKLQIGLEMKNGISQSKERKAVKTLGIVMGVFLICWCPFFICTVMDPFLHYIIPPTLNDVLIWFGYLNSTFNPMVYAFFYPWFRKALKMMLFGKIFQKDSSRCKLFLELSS
Experimental: EC50 and Erna, values are reported for these compounds in Table 1.
A GPCR cAMP Modulation Assay can be used to determine whether a compound can be considered an agonist or antagonist.
cAMP Hunter cell lines were expanded from freezer stocks according to standard procedures. Cells were seeded into white walled, 384-well microplates in a total volume of 20 μL and incubated at 37° C. prior to testing. cAMP modulation was determined using a DiscoverX HitHunter cAMP XS+assay.
To determine whether a compound would be considered an agonist, cells were incubated with a test compound to induce a response. Media was aspirated from cells and replaced with 15 μL, 2:1 HBSS/10mM Hepes: cAMP XS+Ab reagent. Sample stocks were diluted immediately to generate a 4X sample in assay buffer. 5 μL of the 4X sample was added to cells and incubated at room temperature or 37° C. for 30 or 60 minutes. Final assay vehicle concentration was 1%.
After appropriate compound incubation, assay signal was generated by incubation with […] cAMP XS+ED/CL lysis cocktail for one hour followed, which was followed with room temperature incubation with […] cAMP XS+EA reagent for three hours. Microplates were read following signal generation with a PerkinElmer Envision^Tm instrument for chemiluminescent signal detection.
CBIS data analysis suite (ChemInnovation, CA) was used to analyze compound activity. RLU stands for relative light units.
For Gs agonist mode assays, percent activity was calculated using the following formula: […]

Sprague-Dawley rats [1] = test: SNL-induced mechanical hyperalgesia model (paw pressure test, PWT); type: in vivo, rat; settings: for minimum effective dose (MED): 1 hour prior to testing
Experimental: Surgery is performed under isoflurane/O, inhalation anesthesia. Following induction of anesthesia, a 3 centimeter incision is made and the left paraspinal muscles are separated from the spinous process at the L4-S2 levels. The L6 transverse process is carefully removed with a pair of small rongeurs to identify visually the L4-L6 spinal nerves. The left L5 (or L5 and L6) spinal nerve(s) is isolated and tightly ligated with silk thread. A complete hemostasis is confirmed and the wound is sutured using non-absorbable sutures, such as nylon sutures or stainless steel staples. Sham-rats undergo an identical surgical procedure except that the spinal nerve(s) is not manipulated. Following surgery animals are weighed, administered a subcutaneous (SC) injection of saline or ringers lactate, the wound area is dusted with antibiotic powder and they are kept on a warm pad until they recover from the anesthesia. Animals are then returned to their home cages until behavioral testing begins (i.e., 3-4 weeks post-surgery). The animals are assessed for their response to either a noxious or non-noxious stimuli, described below, prior to surgery (baseline), then 1, 3, and 5 hours after being administered a compound of the present disclosure 3 or 4 weeks post-surgery.
Hyperalgesia: The paw pressure assay can be used to assess mechanical hyperalgesia. Sensitivity to noxious mechanical stimuli is measured in animals using the paw pressure test to assess mechanical hyperalgesia. In rats, hind paw withdrawal thresholds (“PWT”), measured in grams, in response to a noxious mechanical stimulus are determined using an analgesymeter (Model 7200, commercially available from Ugo Basile of Italy), as described in C. Stein, “Unilateral Inflammation of the Hindpaw in Rats as a Model of Prolonged Noxious Stimulation: Alterations in Behavior and Nociceptive Thresholds,” Pharmacol. Biochem. and Behavior 31:451-455 (1988). The rat is gently restrained, its hindpaw is placed on a small round platform, and punctate pressure is applied to the dorsal surface of the hindpaw in a graded manner. The maximum weight that is applied to the hind paw is set at 250 grams and the end point is taken as complete withdrawal of the paw. PWT is determined once for each rat at each time point and either only the affected (ipsilateral; same side as the injury) rear paw is tested, or both the ipsilateral and contralateral (non-injured; opposite to the injury) rear paw are tested. Rats are tested prior to surgery or FCA administration to determine a baseline, or normal, PWT. Rats are tested again 3-4 weeks post-surgery or 24 hours post-FCA injection and at different times after (e.g., 1, 3, and 5 hours) compound or vehicle administration. A sham control is also implemented to determine the PWT of a rat having neither surgery nor compound administration.
Representative agonists and partial agonists of the present disclosure are tested in the spinal nerve ligation (“SNL”)-induced mechanical hyperalgesia model in male, Sprague-Dawley rats. Sensitivity to noxious mechanical stimuli is measured in animals using the paw pressure test to assess mechanical hyperalgesia. In rats, hind paw withdrawal thresholds (“PWT”), measured in grams, in response to a noxious mechanical stimulus are determined using an analgesymeter (Model 7200, commercially available from Ugo Basile of Italy), as described in C. Stein, “Unilateral Inflammation of the Hindpaw in Rats as a Model of Prolonged Noxious Stimulation: Alterations in Behavior and Nociceptive Thresholds,” Pharmacol. Biochem. & Behavior 31:451-455 (1988). Briefly, the rat's paw is placed on a small platform, and weight is applied in a graded manner up to a maximum of 250 grams. The endpoint is taken as the weight at which the paw is completely withdrawn. PWT is determined once for each rat at each time point. PWT is measured only in the injured paw. Rats are tested prior to surgery to determine a baseline, or normal, PWT. […]

[2] = system: 254 bp β-arresting KO rats; test: SNL-induced mechanical hyperalgesia in 254 bp β-arresting KO rats; type: in vivo, rat; settings: IP dosing, achieved at 1 hour
1276 bp GRK5 KO rats = test: SNL-induced mechanical hyperalgesia in 1276 bp GRK5 KO rats; type: in vivo, rat; settings: IP dosing, achieved at 3 hours
Sprague-Dawley rats [3] = test: Rotarod performance; type: in vivo, rat; settings: IP at 30 mg/kg, 1 hour post dosing
Experimental: The Rotarod test is used to evaluate motor coordination, strength, and balance. The animals are placed on the rotating rod of the device. The time during which an animal can maintain itself on said bar at an accelerating speed of 5-40 rpm is recorded. 300 seconds is the assay cut-off. Data are analyzed by a two-way ANOVA using a Bonferroni Multiple Comparisons test. […] In the experiment, male, Sprague-Dawley rats, 211-241 g (n=10/group) were tested on an accelerating rotarod (AccuScan; manual 5-40 rpm).

Sprague-Dawley rats [4] = test: Tail flick test (nociceptive pain); type: in vivo, rat; settings: positive control, administered subcutaneously one hour prior to testing

SMILES	EC50 (hTAAR1)	Emax (hTAAR1)	further results
NC1=N[C@@H](CCc2ccc(NC(=O)c3ccc(Cl)cc3)cc2)CO1	8.53 ± 0.25 nM	42.7 ± 3%	–
Cc1c(F)cccc1[C@H]1COC(N)=N1	13.7 ± 5.01 nM	68.7 ± 3%	–
O=C(Nc1ccc(C2CCNC2)cc1)Nc1ccc(Cl)cn1 (stereo not drawn)	54.5 ± 18.6 nM	80.9 ± 3%	–
NC1=N[C@@H](c2ccc(Cl)c(Cl)c2)CO1	–	35.5 ± 3%	–
Clc1ccc(Nc2ccc(C3CNCCO3)nc2)cc1 (stereo not drawn)	123 ± 9.99 nM	56.1 ± 7.5%	–
NC1CCc2cc(NC(=O)c3ccnc(C(F)(F)F)c3)ccc2C1 (stereo not drawn)	163 nM	–	hTAAR1 Emax (mean ± SEM (n)) (hTAAR1): 85.8 ± 3.0% (2.8)
O=C(Nc1ccc(C2CCNC2)cc1)c1ccc(Cl)cn1 (stereo not drawn)	475 ± 50.1 nM	73.5 ± 3%	–
CC(C)n1nc(OCC(F)(F)F)cc1C(=O)Nc1ccc(C2OC3CN[C@H]2C3)cc1 (stereo partly drawn)	519 nM	–	hTAAR1 Emax (mean ± SEM (n)) (hTAAR1): 66.6 ± 14.9% (3)
O=C(Nc1ccc(C2O[C@@H]3CN[C@H]2C3)cc1)c1ccc(Cl)cc1 (stereo partly drawn)	7210 nM	–	hTAAR1 Emax (mean ± SEM (n)) (hTAAR1): 29.7 ± 14.2% (3)
CCOc1cccc(NC(=O)c2ccc(N3CCCC3)c(C(F)(F)F)c2)c1	> 10000 nM	6.1 ± 3%	–
CC(C)N(Cc1c[nH]cn1)c1ccc(Cl)cc1 [Compound 1, N-((1H-imidazol-4-yl)methyl)-4-chloro-N-isopropylaniline]	–	–	maximum reversal of SNL-induced mechanical hyperalgesia (Sprague-Dawley rats [1]; IP dosing, achieved at 3 hours): 41%; minimum effective dose (MED) (Sprague-Dawley rats [1]; PO dosing): < 3 mg/kg; maximum reversal of SNL-induced mechanical hyperalgesia (Sprague-Dawley rats [1]; PO dosing, achieved at 3 hours): 69%
CCN(CC1COC(N)=N1)c1ccccc1 (stereo not drawn) [Compound 2, 4-((ethyl(phenyl)amino)methyl)-4,5-dihydrooxazol-2-amine]	–	–	maximum reversal of SNL-induced mechanical hyperalgesia [2]: 43%; maximum reversal of SNL-induced mechanical hyperalgesia (1276 bp GRK5 KO rats): 61%; rotarod performance (motor performance) (Sprague-Dawley rats [3]): produced deficits in motor performance; minimum effective dose (MED) (Sprague-Dawley rats [1]; IP dosing): < 1 mg/kg; maximum reversal of SNL-induced mechanical hyperalgesia (Sprague-Dawley rats [1]; IP dosing, achieved at 3 hours): 76%; minimum effective dose (MED) (Sprague-Dawley rats [1]; PO dosing): 10 mg/kg; maximum reversal of SNL-induced mechanical hyperalgesia (Sprague-Dawley rats [1]; PO dosing, achieved at 3 hours): 22%
NC1=NC(c2ccc(Cl)c(Cl)c2)CO1 (stereo not drawn) [Compound 3, 4-(3,4-dichlorophenyl)-4,5-dihydrooxazol-2-amine]	–	–	minimum effective dose (MED) (Sprague-Dawley rats [1]; IP dosing): 3 mg/kg; maximum reversal of SNL-induced mechanical hyperalgesia (Sprague-Dawley rats [1]; IP dosing, achieved at 3 hours): 56%; minimum effective dose (MED) (Sprague-Dawley rats [1]; PO dosing): 10 mg/kg; maximum reversal of SNL-induced mechanical hyperalgesia (Sprague-Dawley rats [1]; PO dosing, achieved at 1 hour): 23%
CCN(CC1COC(N)=N1)c1ccccc1 (stereo not drawn) [drawing 40]	92 ± 10.9 nM	81.7 ± 3%	–
CN1CC[C@]23c4c5ccc(O)c4O[C@H]2[C@@H](O)C=C[C@H]3[C@H]1C5 [morphine]	–	–	analgesic efficacy in the tail flick assay (Sprague-Dawley rats [4]): robust analgesic efficacy

Reference: US20220280527A1, “TRACE AMINE ASSOCIATED RECEPTOR 1 AGONISTS AND PARTIAL AGONISTS FOR PAIN TREATMENT” (Purdue Pharma L.P., priority 2016, published 2022)
